Format in all cases: cell-based
For one assay, the target named is T1, OR52B4 (Homo sapiens, UniProt Q8NGK2).
T1 construct: specific primers, which amplify the complete open reading frame; expressed in transfected cells; host or cells: HEK293
T1 sequence (Q8NGK2 1-314): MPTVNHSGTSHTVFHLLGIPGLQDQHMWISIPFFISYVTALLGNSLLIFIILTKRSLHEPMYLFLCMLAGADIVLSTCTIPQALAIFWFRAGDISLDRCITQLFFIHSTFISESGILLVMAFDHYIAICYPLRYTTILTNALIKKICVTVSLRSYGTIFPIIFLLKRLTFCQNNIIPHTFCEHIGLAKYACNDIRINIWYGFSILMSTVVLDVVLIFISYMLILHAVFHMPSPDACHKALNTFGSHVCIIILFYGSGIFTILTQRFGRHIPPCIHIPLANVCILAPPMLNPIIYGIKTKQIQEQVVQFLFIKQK
Nature of the assay: Ca-imaging of OR52B4-transfected HEK293 cells. On the set-up: key: ▪: 18 olfactory receptors responded to 32 odorants in related with specific anosmia. The conditions noted are these: individual odorant 200 μM, significant response p<0.05. Here is the method:
(§1) HEK293 cells were cultivated in Petri dishes (Ø35 mm) as previously described (Benbernou et al. 2007). We grow up HEK293 cells in culture medium containing standard DMEM with 10% heat-inactivated fetal bovine serum, 2 mM L-glutamine, 100 units/ml penicillin, and 100 units/ml streptomycin in a humidified atmosphere (37° C., 5% CO2). After 2-3 days, the transfection process was carried out, whereby the cell culture was 70-80% confluent. The calciumphosphate method was applied to transfect DNA plasmid transiently in HEK293 cells in case of Ca-imaging method.
(§2) Calcium cations and phosphate anions created crystal precipitations coupled with DNA which could invade into the cells through endocytosis. Cells were transiently transfected with plasmid DNA which consists of pCI expression vector and PCR-amplified full-length cDNA of olfactory receptors candidates, and also Gα15, RTP1, Myr-Ric8A, HSC70, and m-Cherry as cofactors. The precipitation could be created after 15-20 min, with dropping the transfection solution on HEK293 cells. Before measuring by Ca-imaging cells were incubated 48-60 hours at 370 C, 5% CO2. Cationic liposome-mediated transfection method was applied to transfect DNA plasmid transiently in HANA3A cells in case of CRE-Luciferase and CRE-SEAP assays.
(§3) Calcium imaging of the transfected HEK293 cells was done by using chambers determinate an inverted microscope (Olympus; IX70) using a 10× objective (CPIanFL N Olympus). Fluorescence emission was determined every 4 s by using a CCD camera (Charge Coupled Device, C9100 Hamamatsu). The capillary tube which was responsible to supply odorants was generated closely above the cells. The columns filled with odorants, DMSO and ATP. Odorants were manually monitored to drop each 4-5 s to transfected cells. Solutions with drop wise form spread on HEK293 cells in 35 mm dishes.
In experiments, Fura-2 Acetoxymethylester (Fura-2/AM) was applied. The non-polar Fura2/AM is fluorescent but not yet calcium-sensitive. Once diffuses into cell plasma, Fura-2/AM is hydrolyzed to Fura-2 which is calcium-sensitive and functions as Ca2+ chelator. Regardless of the presence of calcium, Fura-2 emits at the wavelength of 510 nm. […] According to this feature, the analysis of 340/380 nm excitation ratio for Fura-2 allows to quantify intracellular calcium levels. […]
(§4) Ringer's solution was used for washing cells between measuring by two different odorants. Positive response was determined by the timing of the response, the strength of the response (more than twofold higher than the noise amplitude of the baseline), and the shape of the response curve (sharp rise in curve with gradual recovery). […]

The target of another assay is T2, OR4E2 (Homo sapiens, UniProt Q8NGC2).
T2 construct: specific primers, which amplify the complete open reading frame; expressed in transfected cells; host or cells: HEK293
T2 sequence (Q8NGC2 1-313): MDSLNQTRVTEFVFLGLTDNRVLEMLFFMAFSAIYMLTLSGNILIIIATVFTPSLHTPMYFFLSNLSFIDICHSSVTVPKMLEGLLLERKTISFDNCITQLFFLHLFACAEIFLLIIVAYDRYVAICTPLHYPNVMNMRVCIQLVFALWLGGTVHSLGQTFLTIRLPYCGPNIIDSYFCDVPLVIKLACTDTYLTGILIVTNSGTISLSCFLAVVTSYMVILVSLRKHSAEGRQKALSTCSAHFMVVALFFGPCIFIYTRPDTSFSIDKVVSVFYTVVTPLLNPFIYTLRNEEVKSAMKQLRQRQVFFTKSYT
Nature of the assay: Ca-imaging of OR4E2-transfected HEK293 cells. Details: key: ▪: 18 olfactory receptors responded to 32 odorants in related with specific anosmia. The conditions noted are these: individual odorant 200 μM, significant response p<0.05. Here is the method: as §1
(§5) Calcium cations and phosphate anions created crystal precipitations coupled with DNA which could invade into the cells through endocytosis. Cells were transiently transfected with plasmid DNA which consists of pCI expression vector and PCR-amplified full-length cDNA of olfactory receptors candidates, and also Gα15, RTP1, Myr-Ric8A, HSC70, and m-Cherry as cofactors. The precipitation could be created after 15-20 min, with dropping the transfection solution on HEK293 cells. Before measuring by Ca-imaging cells were incubated 48-60 hours at 370 C, 5% CO2. […]
(§6) Calcium imaging of the transfected HEK293 cells was done by using chambers determinate an inverted microscope (Olympus; IX70) using a 10× objective (CPIanFL N Olympus). Fluorescence emission was determined every 4 s by using a CCD camera (Charge Coupled Device, C9100 Hamamatsu). […] Odorants were manually monitored to drop each 4-5 s to transfected cells. […]
(§7) In experiments, Fura-2 Acetoxymethylester (Fura-2/AM) was applied. […] According to this feature, the analysis of 340/380 nm excitation ratio for Fura-2 allows to quantify intracellular calcium levels. […]
as §4

A further assay concerns the target T3, OR4K2 (Homo sapiens, UniProt Q8NGD2).
T3 construct: specific primers, which amplify the complete open reading frame; expressed in transfected cells; host or cells: HEK293
T3 sequence (Q8NGD2 1-314): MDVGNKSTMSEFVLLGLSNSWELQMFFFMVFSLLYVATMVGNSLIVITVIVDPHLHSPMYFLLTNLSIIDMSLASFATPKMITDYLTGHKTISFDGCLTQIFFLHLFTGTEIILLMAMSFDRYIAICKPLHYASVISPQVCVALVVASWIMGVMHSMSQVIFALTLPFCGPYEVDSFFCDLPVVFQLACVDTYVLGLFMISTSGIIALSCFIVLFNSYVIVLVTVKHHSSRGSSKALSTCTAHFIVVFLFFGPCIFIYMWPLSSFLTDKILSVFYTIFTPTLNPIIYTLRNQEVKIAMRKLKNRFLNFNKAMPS
The assay can be described thus: Ca-imaging of OR4K2-transfected HEK293 cells. The conditions noted are these: HEK293 cells, individual odorant 200 μM, significant response p<0.05. On the set-up: key to OR4K2 responded to odorant: ▪: 18 olfactory receptors responded to 32 odorants in related with specific anosmia. The protocol:
as §1, §2, §3
In experiments, Fura-2 Acetoxymethylester (Fura-2/AM) was applied. The non-polar Fura2/AM is fluorescent but not yet calcium-sensitive. Once diffuses into cell plasma, Fura-2/AM is hydrolyzed to Fura-2 which is calcium-sensitive and functions as Ca2+ chelator. Regardless of the presence of calcium, Fura-2 emits at the wavelength of 510 nm. Once Fura-2 binds to free intracellular Ca2+ in cell plasma, its ratio of excitation at wavelengths of 340 nm and 380 nm is changed and correlated to the amount of intracellular Ca2+. According to this feature, the analysis of 340/380 nm excitation ratio for Fura-2 allows to quantify intracellular calcium levels.
In preparation for Ca-imaging measurements, transfected HEK293 cells were added 3 it Fura2/AM (3 μM) and incubated 30-45 min at 370 C, 5% CO2. After this step, experiments were carried out in a dark condition (Fura-2 is light-sensitive). After the incubation, medium of cell culture was replaced with 2 ml Ringer's solution.
Odorants were freshly prepared with DMSO as 1 M stocks solutions. Six mixtures (200 μM each chemical) were applied to cells sequentially (20 s each mixture/30 s Ringer). Those ORs tested with single odorants that had generated a response to odorant mixture group previously. Odorants were prepared in 100-200 μM concentration.
as §4

In a further assay the target is T4, OR12D2 (Homo sapiens, UniProt P58182).
T4 construct: specific primers, which amplify the complete open reading frame; expressed in transfected cells; host or cells: HEK293
T4 sequence (P58182 1-307): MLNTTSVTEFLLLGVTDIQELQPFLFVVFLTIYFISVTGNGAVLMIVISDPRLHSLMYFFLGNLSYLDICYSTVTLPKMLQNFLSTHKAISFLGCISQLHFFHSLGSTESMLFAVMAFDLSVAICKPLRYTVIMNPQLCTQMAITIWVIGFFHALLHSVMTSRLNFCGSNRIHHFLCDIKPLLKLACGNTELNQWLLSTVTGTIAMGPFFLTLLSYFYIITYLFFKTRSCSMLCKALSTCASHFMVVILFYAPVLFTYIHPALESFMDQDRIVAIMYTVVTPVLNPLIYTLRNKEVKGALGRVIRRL
Nature of the assay: Ca-imaging of OR12D2-transfected HEK293 cells. Details: key: ▪: 18 olfactory receptors responded to 32 odorants in related with specific anosmia. The conditions noted are these: individual odorant 200 μM, significant response p<0.05.

The target of another assay is T5, OR4K5 (Homo sapiens, UniProt Q8NGD3).
T5 construct: specific primers, which amplify the complete open reading frame; expressed in transfected cells; host or cells: HEK293
T5 sequence (Q8NGD3 1-323): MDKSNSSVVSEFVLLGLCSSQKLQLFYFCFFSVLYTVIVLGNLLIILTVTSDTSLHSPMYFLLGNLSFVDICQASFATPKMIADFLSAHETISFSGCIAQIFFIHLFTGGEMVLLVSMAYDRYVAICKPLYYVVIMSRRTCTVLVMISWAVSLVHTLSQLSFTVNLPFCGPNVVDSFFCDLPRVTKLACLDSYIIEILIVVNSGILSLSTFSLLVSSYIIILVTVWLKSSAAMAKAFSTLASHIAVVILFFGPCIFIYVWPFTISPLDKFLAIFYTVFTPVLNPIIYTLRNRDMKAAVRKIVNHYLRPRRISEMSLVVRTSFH
Nature of the assay: Ca-imaging of OR4K5-transfected HEK293 cells. Details: key to OR4K5 responded to odorant: ▪: 18 olfactory receptors responded to 32 odorants in related with specific anosmia. The conditions noted are these: HEK293 cells, individual odorant 200 μM, significant response p<0.05. The protocol: as §1, §5, §6, §7, §4

The next assay concerns the target T6, OR4P4 (Homo sapiens, UniProt Q8NGL7).
T6 construct: specific primers, which amplify the complete open reading frame; expressed in transfected cells; host or cells: HEK293
T6 sequence (Q8NGL7 1-312): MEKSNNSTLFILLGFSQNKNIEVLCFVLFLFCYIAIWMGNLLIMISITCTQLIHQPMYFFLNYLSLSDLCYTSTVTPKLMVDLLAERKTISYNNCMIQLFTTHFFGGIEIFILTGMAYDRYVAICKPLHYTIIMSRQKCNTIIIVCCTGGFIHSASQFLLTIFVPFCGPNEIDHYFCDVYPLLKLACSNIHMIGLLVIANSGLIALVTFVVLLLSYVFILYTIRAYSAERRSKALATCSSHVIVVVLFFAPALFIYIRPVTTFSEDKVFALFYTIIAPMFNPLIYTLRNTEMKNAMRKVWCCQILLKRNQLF
Nature of the assay: Ca-imaging of OR4P4-transfected HEK293 cells. The conditions noted are these: for OR4P4 responded to odorant: HEK293 cells, individual odorant 200 μM, significant response p<0.05. On the set-up: key to OR4P4 responded to odorant: ▪: 18 olfactory receptors responded to 32 odorants in related with specific anosmia. Here is the method:
as §1, §5, §6, §7, §4

Procedure for OR12D2: In preparation for Ca-imaging measurements, transfected HEK293 cells were added 3 it Fura2/AM (3 μM) and incubated 30-45 min at 370 C, 5% CO2. After this step, experiments were carried out in a dark condition (Fura-2 is light-sensitive). […]

Take `C=CC(=O)CCCCC` [1-Octan-3-One, 1-Octen-3-one]: the “OR52B4 responded to odorant” value on OR52B4 is “▪”. `COc1c(Cl)cc(Cl)cc1Cl` [2-4-6 trichoroanisole, 2-4-6-Trichloroanisole]: the “OR52B4 responded to odorant” value on OR52B4 is recorded as “▪”. In addition, the “OR4E2 responded to odorant” value at OR4E2 is reported as “▪”. On to `O=CCCc1ccccc1` [3-phenyl propyl aldehyde, 3-Phenylpropionaldehyde], for which, on OR4K2, the “OR4K2 responded to odorant” value was “▪”. Further, the “OR4E2 responded to odorant” value on OR4E2 is reported as “▪”. Regarding `CC(=O)O` [Acetic acid], the “OR12D2 responded to odorant” value at OR12D2 is on record as “▪”. For `O=Cc1ccccc1` [Banzaldehyde, Benzaldehyde], the “OR4K2 responded to odorant” value on OR4K2 was “▪”. For the compound `CO[C@]1(C)CC[C@@]23C[C@@H]1C(C)(C)[C@@H]2CC[C@H]3C` [Cedramber], the “OR4K5 responded to odorant” value at OR4K5 was “▪”.

On to `CC1CCCC2(C)CCCCC12O` (centres unmarked) [Geosmin], for which the “OR52B4 responded to odorant” value on OR52B4 is listed as “▪”. Regarding `CC(C)=CCC/C(C)=C/CO` [Graniol, Geraniol], the “OR4E2 responded to odorant” value on OR4E2 is recorded as “▪”. As for `CC(C)C=O` [Isobutyr aldehyde, Isobutyraldehyde], the “OR4K2 responded to odorant” value at OR4K2 is on record as “▪”. As for `CC(C)CC(=O)O` [Isovaleric acid], on OR12D2, the “OR12D2 responded to odorant” value is “▪”. With `CCCCCC(=O)O` [N-Hexanoic acid, NHexanoic acid], the “OR4P4 responded to odorant” value on OR4P4 is listed as “▪”. Regarding `CCC(=O)O` [Propionic acid], the “OR12D2 responded to odorant” value on OR12D2 is given as “▪”. For `CC/C(=C\CC1CC=C(C)C1(C)C)CO` (centres unmarked) [Sandranol], the “OR52B4 responded to odorant” value at OR52B4 is recorded as “▪”. Globalide: at OR4P4, the “OR4P4 responded to odorant” value is reported as “▪”. In addition, the “Response of OR4P4 to odorant, in words” value at OR4P4 (single odorants 200 μM) is listed as “responded”.

The record behind these values is patent US9939427B2, “Method for evaluating the scent performance of perfumes or perfume mixtures” (Symrise AG, priority 2013, dated 2018).
